# What was measured:
# [1] = Acute oral toxicity (LD50); assay type: in vivo; details: mouse, in vivo, mice, read-out: Lethal dose LD50
# Description: The LD 50 was calculated by the method of Litchfield and Wilcoxon (J. Pharmacol. Exp. Ther., 96, 99, 1949) and is expressed in mg/kg. The products were orally administered to mice.
# Behaviour was studied, 2, 4, 6 and 24 hours after treatment. Observation was continued if symptoms persisted at that time. Deaths were recorded during the 14 days after treatment. The results are given in Table II, in which the numbers of the compounds are the same as the numbers given in column 1 of Table I.
# [2] = test system: accumulation of sorbitol in the crystalline lenses; assay: Inhibition of accumulation of sorbitol in crystalline lenses of diabetic rats; assay type: in vivo, Sprague Dawley rats; details: for Inhibition of accumulation of sorbitol in vivo, crystalline lenses: oral 25 mg/kg at 0, 7 and 24 h, sacrificed 27 h; for inhibition of accumulation of sorbitol in crystalline lenses and sciatic nerves (in words): oral 25 mg/kg
# Description: (§1) 2.1 Inhibition of accumulation of sorbitol in crystalline lenses and nerves of diabetic rats:
# (§2) The effects of the products according to the invention on the proportion of plasma glucose and the accumulation of sorbitol in the crystalline lenses and sciatic nerves of rats made diabetic by streptozotocin were examined by the method of M. J. Peterson, et al (Metabolism, 28, 456-461 (1979)).
# (§3) Fasted Sprague Dawley rats were made diabetic by intraperitoneal injection of streptozotocin (75 mg/kg). The product under test was orally administered at a dose of 25 mg/kg after 0, 7 and 24 hours. The rats were sacrificed 27 hours after induction of diabetes. The crystalline lenses and sciatic nerves were taken and preserved at -20° C. until analysed. The crystalline lenses and sciatic nerves were homogenized in water and the proteins were precipitated from ethanol. The precipitate was eliminated by centrifuging and the supernatant liquid was lyophylised. The sorbitol in the sample was determined by the method of B. Bjorkqvist (J. of Chromatograph, 218, 65-71 (1981)), adapted by A. Lenaers et al. (Arch. Intern. Physiol. Bioch., 91, B, 62-63 (1983)).
# (§4) The sample was dissolved in pyridine containing galactitol as an internal standard. Derivatives were formed therefrom by phenylisocyanate during incubation for 1 hour at 60° C. The reaction was then stopped by adding methanol and the derivatives were separated and determined by HPLC.
# (§5) The results are expressed as percentage inhibition of the accumulation of sorbitol, compared with the controls.
# [3] = test system: accumulation of sorbitol in the sciatic nerves; assay: Inhibition of accumulation of sorbitol in sciatic nerves of diabetic rats; assay type: in vivo, Sprague Dawley rats; details: oral 25 mg/kg at 0, 7 and 24 h, sacrificed 27 h
# Description: as §1, §2, §3, §4, §5
# [4] = test system: accumulation of galactitol in fibroblasts obtained from human skin; assay: Inhibition of accumulation of galactitol in fibroblasts; assay type: cell-based; details: Fibroblast, 48 h, 37° C., galactose 3 mg/ml
# Description: 1.2 Inhibiting effect on accumulation of galactitol:
# A test for evaluating this activity was made in vitro on fibroblasts obtained from human skin.
# An experimental model culture was obtained by incubating the cells in the presence of a medium containing a high concentration of galactose (3 mg/ml) and the product under test, and measuring the accumulation of galactitol in the cells after a 48-hour incubation period at 37° C. The cells were then isolated, washed in physiological salt solution and treated with a water-ethanol solution. The medium was centrifuged and the supernatant liquid was lyophylized.
# The galactitol in the resulting sample was determined by HPLC (=high pressure liquid chromatography) after derivatives had been obtained with phenyl isocyanate.
# The proportion of proteins in the precipitate obtained during the previously-mentioned centrifuging was measured by the method of M. M. Bradford (Anal. Biochem., 72, 248-254 (1976)) and indicated the number of cells present in the sample.
# The inhibiting effect of the tested product was expressed as a percentage inhibition of intracellular accumulation of galactitol compared with the controls.
# aldose reductase = target: T1, aldose reductase (Rattus norvegicus, UniProt P07943); assay: Inhibition of enzymatic activity of aldose reductase in vitro; assay type: biochemical; details: 10^-4 M, rat crystalline lens enzyme, pH 6.2, D,L-glyceraldehyde substrate; read-out: Inhibition of enzymatic activity of AR in vitro
# T1 construct: The supernatant liquid formed the enzyme solution used for the test; from tissue; host or cells: rat crystalline lens, water homogenate, supernatant
# Excerpt: 1.1 Inhibiting effect on enzymatic activity of aldose reductase:
# The method described by S. Hayman and J. H. Kinoshita (J. Biol. Chem., 240, 877 (1965)) was used for in vitro testing of the aforementioned effect of the products according to the invention.
# Rat's crystalline lens was homogenized in water and centrifuged to eliminate insoluble substances. The supernatant liquid formed the enzyme solution used for the test.
# The effect of products according to the invention in inhibiting enzymatic activity of aldose reductase was determined by spectrophotometrically following for 5 minutes the disappearance of NADPH in an aqueous solution containing 0.067M phosphate buffer (final pH: 6.2), 0.40M lithium sulphate, 5.10^-5 M NADPH, 10^-4 M of the product under test and 100 μl of the enzyme solution, to which 10^-2 M of D,L-glyceraldehyde had been added as substrate. (NADPH=reduced form of nicotinamide adenine dinucleotide phosphate).
# The inhibiting effect observed in the presence of 10^-4 M of product under test relative to the reaction in the absence of a compound according to the invention, is expressed as a percentage.
inhibition at 100 µM (aldose reductase) [%],Compound,LD50 at 336 h [1] [mg/kg],"Inhibition of accumulation of sorbitol in vivo, crystalline lenses [2] [%]","Inhibition of accumulation of sorbitol in vivo, in sciatic nerves [3] [%]",inhibition at 100 µM ([4]; 10^-4 M) [%],inhibition at 10 µM ([4]; 10^-5 M) [%],inhibition at 1 µM ([4]; 10^-6 M) [%],inhibition of accumulation of sorbitol in crystalline lenses and sciatic nerves (in words) [2]
,O=C(OCN1C(=O)N(COC(=O)c2ccccc2)C2(C1=O)c1ccccc1-c1ccccc12)c1ccccc1 [Compound 3],> 3000,37,55,,,,
,CC(C)(C)C(=O)OCN1C(=O)N(COC(=O)C(C)(C)C)C2(C1=O)c1ccccc1-c1ccccc12 [Compound 4],,51,50,,,,
,"CCC(=O)OCN1C(=O)N(COC(=O)CC)C2(C1=O)c1ccccc1-c1ccccc12 [Compound 5, bis-(1',3'-propanoyloxymethyl)-spiro-[fluorene-9,4'-imidazolidine]-2',5'-dione]",,74,81,91,56,24,particularly active
,"CC(OC(=O)C(C)(C)C)N1C(=O)NC2(C1=O)c1ccccc1-c1ccccc12 (stereo not shown) [Compound 7, 1'-/1-(2,2-dimethylpropanoyloxy)-ethyl/-spiro-/fluorene-9,4'-imidazolidine/-2',5'-dione]",,45,72,,,,
,O=C(CCCC1CCCCC1)OCN1C(=O)N(COC(=O)CCCC2CCCCC2)C2(C1=O)c1ccccc1-c1ccccc12 [Compound 8],> 3000,69,85,,,,particularly active
,CC(C)(C)CC(=O)OCN1C(=O)N(COC(=O)CC(C)(C)C)C2(C1=O)c1ccccc1-c1ccccc12 [Compound 9],> 1000,49,70,,,,
,"CCOC(=O)OCN1C(=O)N(COC(=O)OCC)C2(C1=O)c1ccccc1-c1ccccc12 [Compound 10, bis-(1',3'-ethoxycarbonyloxymethyl)-spiro-/fluorene-9,4'-imidazolidine/-2',5'-dione]",> 3000,80,84,,,,particularly active
0,O=C(CCCc1ccccc1)OCN1C(=O)N(COC(=O)CCCc2ccccc2)C2(C1=O)c1ccccc1-c1ccccc12 [Compound 11],,4,24,,,,
,O=C(OCN1C(=O)N(COC(=O)C2CCCCC2)C2(C1=O)c1ccccc1-c1ccccc12)C1CCCCC1 [Compound 12],> 1000,12,48,,,,
,O=C(OCc1ccccc1)OCN1C(=O)N(COC(=O)OCc2ccccc2)C2(C1=O)c1ccccc1-c1ccccc12 [Compound 13],,33,50,,,,
,O=C(COc1ccccc1)OCN1C(=O)N(COC(=O)COc2ccccc2)C2(C1=O)c1ccccc1-c1ccccc12 [Compound 14],> 1000,51,61,,,,
0,CCCCC(=O)OCN1C(=O)N(COC(=O)CCCC)C2(C1=O)c1ccccc1-c1ccccc12 [Compound 15],,54,74,,,,
,O=C(OCN1C(=O)N(COC(=O)Oc2ccccc2)C2(C1=O)c1ccccc1-c1ccccc12)Oc1ccccc1 [Compound 16],> 3000,53,65,,,,
84,"COCN1C(=O)NC2(C1=O)c1ccccc1-c1ccccc12 [Compound 17, 1'-(methoxymethyl)-spiro-/fluorene-9,4'-imidazolidine/-2',5'-dione]",,86,92,,,,particularly active
,"O=C(Nc1ccccc1)OCN1C(=O)N(COC(=O)Nc2ccccc2)C2(C1=O)c1ccccc1-c1ccccc12 [Compound 18, bis-(1',3'-N-phenylcarbamoyloxymethyl)-spiro-/fluorene-9,4'-imidazolidine/-2',5'-dione]",> 3000,8,17,,,,
,O=C(OCN1C(=O)N(COC(=O)C2CCCC2)C2(C1=O)c1ccccc1-c1ccccc12)C1CCCC1 [Compound 19],> 3000,77,89,,,,particularly active
,CCC(C(=O)OCN1C(=O)N(COC(=O)C(CC)c2ccccc2)C2(C1=O)c1ccccc1-c1ccccc12)c1ccccc1 (stereo not shown) [Compound 20],> 3000,60,77,,,,
0,CNC(=O)OCN1C(=O)N(COC(=O)NC)C2(C1=O)c1ccccc1-c1ccccc12 [Compound 22],,21,17,,,,

Compound,inhibition at 100 µM (aldose reductase) [%],LD50 at 336 h [1] [mg/kg],"Inhibition of accumulation of sorbitol in vivo, crystalline lenses [2] [%]","Inhibition of accumulation of sorbitol in vivo, in sciatic nerves [3] [%]",inhibition at 100 µM ([4]; 10^-4 M) [%],inhibition at 10 µM ([4]; 10^-5 M) [%],inhibition at 1 µM ([4]; 10^-6 M) [%],inhibition of accumulation of sorbitol in crystalline lenses and sciatic nerves (in words) [2]
"CCCCCCCC(=O)OCN1C(=O)N(COC(=O)CCCCCCC)C2(C1=O)c1ccccc1-c1ccccc12 [Compound 6, bis-(1',3'-n.octanoyloxymethyl)-spiro-/fluorene-9,4'-imidazolidine/-2',5'-dione]",0,> 3000,76,79,,,,
"CC(=O)OCN1C(=O)NC2(C1=O)c1ccccc1-c1ccccc12 [Compound 21, 1'-(acetoxymethyl)-spiro-/fluorene-9,4'-imidazolidine/-2',5'-dione]",8,> 1000,85,94,,,,particularly active

# Source: patent publication US4853401A, “Spiro-hydantoins as aldose reductase inhibitors” (priority 1987, dated 1989)
